In US20240083885A1, “COMPOSITIONS AND METHODS FOR INHIBITING M PRO PROTEASE ACTIVITY AND FOR PREVENTING AND TREATING SARS-COV-2 INFECTION” (priority 2020, published 2024):
Several values for one entry are separate records, joined by “and”; a condition that tells them apart may be missing. Identical values can stand only once. Like-named read-outs stand apart in the source and are kept apart here.

Columns and labels:
[1] = target: SARS-CoV-2 papain-like protease (PL^pro) (Severe acute respiratory syndrome coronavirus 2 (2019-nCoV) (SARS-CoV-2), UniProt P0DTD1); assay: biochemical
[2] = target: T1, SARS-CoV-2 M^pro (Severe acute respiratory syndrome coronavirus 2 (2019-nCoV) (SARS-CoV-2), UniProt P0DTD1); assay: biochemical
[3] = target: T1, SARS-CoV-2 M^pro; assay type: binding
[4] = target: T1, SARS-CoV-2 M^pro; assay: biochemical; assay type: binding
[5] = target: SARS-CoV M^pro (Severe acute respiratory syndrome coronavirus (SARS-CoV), UniProt P0C6X7); assay: biochemical
[6] = target: caspase-3 (Homo sapiens (Human), UniProt P42574); assay: Host protease FRET-based enzymatic assay: caspase-3; assay type: biochemical
Sequence of caspase-3 (P42574 29-175 limits assumed): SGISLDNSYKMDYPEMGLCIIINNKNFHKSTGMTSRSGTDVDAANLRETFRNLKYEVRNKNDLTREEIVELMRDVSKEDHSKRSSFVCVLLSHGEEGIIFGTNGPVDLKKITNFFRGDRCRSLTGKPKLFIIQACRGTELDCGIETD
Sequence of caspase-3 (P42574 176-277 limits assumed): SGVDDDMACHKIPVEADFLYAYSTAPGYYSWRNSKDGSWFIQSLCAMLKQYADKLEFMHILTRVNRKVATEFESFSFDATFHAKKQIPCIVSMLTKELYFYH
Protocol: (§1) Enzymatic reactions against host proteases (Calpain I, Cathepisn K, Cathespsin L, Caspase-3 and Trypisn) were carried out as previously described (see, Xia, Z.; et al., ACS Pharmacol. Transl. Sci. 2021). Cathepsin B assay reaction was carried out as follows: Cathepsin B (catalog no. CTB-H5222) was diluted into 100 nM final concentration in a buffer containing 20 mM sodium acetate pH5.5, 1 mM EDTA and 2 mM DTT and the mixture was incubated for 30 min at 30° C. Activated Cathepsin B was further diluted to 500 pm in the reaction buffer (100 mM MES pH6.0, 1 mM EDTA, 2 mM DTT and 0.01% TWEEN 20).

[7] = target: T2, calpain I (Homo sapiens (Human), UniProt P07384); assay: Host protease FRET-based enzymatic assay: calpain I; assay type: biochemical
Protocol: as §1

[8] = test system: SARS-CoV-2; assay: microbe, parasite or virus in culture; assay type: cell-based; settings: read-out: antiviral EC50 against SARS-CoV-2 in Vero E6 cells
[9] = target: T3, Cathepsin L (Homo sapiens (Human), UniProt P07711); settings: read-out: Cathepsin L IC50; cited from earlier work
T3 sequence (P07711 114-333 limits assumed): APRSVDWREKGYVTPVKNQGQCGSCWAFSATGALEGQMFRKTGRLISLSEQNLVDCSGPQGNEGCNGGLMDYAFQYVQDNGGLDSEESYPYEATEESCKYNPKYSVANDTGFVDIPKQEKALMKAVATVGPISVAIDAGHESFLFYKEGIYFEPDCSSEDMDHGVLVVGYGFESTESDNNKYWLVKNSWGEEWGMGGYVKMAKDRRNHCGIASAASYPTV

[10] = target: cathepsin K (Homo sapiens (Human), UniProt P43235); assay type: biochemical
Sequence of cathepsin K (P43235 115-329 limits assumed): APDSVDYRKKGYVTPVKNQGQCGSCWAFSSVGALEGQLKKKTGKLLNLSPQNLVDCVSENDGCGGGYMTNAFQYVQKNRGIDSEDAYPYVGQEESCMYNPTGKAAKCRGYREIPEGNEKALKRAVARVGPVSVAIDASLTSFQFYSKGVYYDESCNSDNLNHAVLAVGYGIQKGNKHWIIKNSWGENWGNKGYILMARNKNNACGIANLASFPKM

[11] = test system: SARS-CoV-2; assay: microbe, parasite or virus in culture; assay type: cell-based; settings: read-out: antiviral EC50 against SARS-CoV-2 in Caco2-hACE2 cells
[12] = target: Cathepsin B (Homo sapiens (Human), UniProt P07858); assay: Host protease FRET-based enzymatic assay: cathepsin B; assay type: biochemical
Protocol: as §1

[13] = test system: trypsin; assay: Host protease FRET-based enzymatic assay: trypsin; assay type: biochemical
[14] = target: T3, Cathepsin L; assay: Host protease FRET-based enzymatic assay: cathepsin L; assay type: biochemical
Protocol: The cathepsin L enzymatic assay was carried out as follows: human liver cathepsin L (EMD Millipore 219402) was activated by incubating at reaction buffer (20 mM sodium acetate, 1 mM EDTA and 5 mM DTT pH5.5) for 30 min at 30° C. Upon activation, the assay was assembled in 96-well plates with 100 μl of 300 pM cathepsin L protein in cathepsin L reaction buffer. Then 1 μl testing compound at various concentrations was added to each well and incubated at 30° C. for 30 min. The enzymatic reaction was initiated by adding 1 μl of 100 μM FRET substrate Z-Phe-Arg-AMC (the final substrate concentration is about 1 μM). The reaction was monitored in a Cytation 5 image reader with filters for excitation at 360/40 nm and emission at 460/40 nm at 30° C. for 1 hr. The IC50 values were calculated as described in above section.
as §1

[15] = test system: Vero E6 cells
[16] = target: T2, calpain I; settings: read-out: Additional off targets: Calpain I IC50; cited from earlier work
[17] = in vitro; settings: human, CC50 in Calu-3 cells
[18] = test system: Calu-3 cells; settings: human, 5 days
[19] = target: T1, SARS-CoV-2 M^pro; assay: cell-based
[20] = Cytotoxicity in Vero E6 cells (neutral red uptake); settings: African green monkey, CC50 in Vero E6 cells
[21] = in vitro; settings: African green monkey, CC50 in Vero E6 cells
[22] = target: T1, SARS-CoV-2 M^pro; assay: biochemical; remark: listed apart in the source
[23] = test system: SARS-CoV-2; assay: microbe, parasite or virus in culture; assay type: cell-based; settings: Severe acute respiratory syndrome coronavirus 2, Calu-3; read-out: antiviral EC50 against SARS-CoV-2 in Calu-3 cells
[24] = read-out: IC50 against SARS-CoV-2 M^pro
[25] = Severe acute respiratory syndrome coronavirus 2, Vero C1008
[26] = Severe acute respiratory syndrome coronavirus 2

Structure (SMILES)	change of IC50 with pre-incubation time [2]	inhibition of calpain I [7]	inhibition of cathepsin K [10]	inhibition of cathepsin B [12]	inhibition of cathepsin L (IC50) [14]	IC50 [2, 24] [µM]	inhibition of caspase-3 (IC50) [6]	EC50 [8, 25] [nM]	EC50 [19] [nM]	EC50 [11, 26] [nM]	inhibition of trypsin (IC50) [13]	CC50 at 5 days [21] [nM]	kinact/KI [22] [M⁻¹ s⁻¹]	further results
C[C@H](NC(=O)C(c1cccnc1)N(C(=O)c1ccco1)c1ccc(-c2ccccc2)cc1)c1ccccc1 (single isomer, unassigned) [Compound 23R]	did not lead to significant changes of the IC50 value													IC50 ([1]; IC50 against SARS-CoV-2 papain-like protease (PL^pro)): > 20 µM; IC50 ([1]; SARS-CoV-2 PL^pro IC50 (μM)): > 60 µM; IC50 ([2]; IC50 against SARS-CoV-2 M^pro): 0.15 µM and 0.13 µM; EC50 ([2]; SARS-COV-2 main protease enzymatic inhibition (separated diastereomers, printed as EC50)): 150 nM; IC50 ([2]; SARS-CoV-2 M^pro IC50 (μM)): 0.15 ± 0.03 µM; binding to SARS-CoV-2 M^pro in native mass spectrometry [3]: dose-dependent binding; Kd [4]: 9430 nM; IC50 [5]: 270 ± 30 nM
CC(C)C[C@H](NC(=O)OCc1ccccc1)C(=O)N[C@@H](CC1CCNC1=O)C(O)S(=O)(=O)[O-].[Na+] (stereo partly shown) [GC-376, reference compound]		potent inhibition	potent inhibition	potent inhibition	potent inhibition									IC50 ([6]; read-out: inhibition of caspase-3 (IC50)): […]; EC50 [8]: 1510 nM; IC50 [9]: 0.99 nM; EC50 ([11]; Caco2-hACE2 cells): 2900 nM; IC50 ([13]; read-out: inhibition of trypsin (IC50)): […]; CC50 [15]: > 125000 nM; IC50 [16]: 74 nM
C[C@H](NC(=O)C(c1cccnc1)N(C(=O)CCl)c1ccc(-c2ccccc2)cc1)c1ccccc1 (stereo partly drawn) [Jun9-54-1, 2-(N-{[1,1′-biphenyl]-4-yl}-2-chloroacetamido)-N-[(1S)-1-phenylethyl]-2-(pyridin-3-yl)acetamide]						0.17								CC50 at 5 days [17]: < 2000 nM; CC50 [18]: < 3500 nM
C[C@H](NC(=O)[C@@H](c1cccnc1)N(C(=O)C(Cl)Cl)c1ccc(-c2ccccc2)cc1)c1ccccc1 [Jun9-62-2R, N-([1,1′-biphenyl]-4-yl)-2,2-dichloro-N-((R)-2-oxo-2-(((S)-1-phenylethyl)amino)-1-(pyridin-3-yl)ethyl)acetamide]	longer pre-incubation time gave lower IC50 values	did not show potent inhibition	did not show potent inhibition	did not show potent inhibition	did not show potent inhibition		did not show potent inhibition	900	960	2050	did not show potent inhibition			CC50 at 5 days [20]: > 100000 nM
C[C@H](NC(=O)[C@@H](c1cccnc1)N(C(=O)C(Br)(Br)Br)c1ccc(-c2ccccc2)cc1)c1ccccc1 [Jun9-88-6R, N-([1,1′-biphenyl]-4-yl)-2,2,2-tribromo-N-((R)-2-oxo-2-(((S)-1-phenylethyl)amino)-1-(pyridin-3-yl)ethyl)acetamide]		did not show potent inhibition	did not show potent inhibition	did not show potent inhibition		0.08	did not show potent inhibition	580	920	2150	did not show potent inhibition	5480	7070	mass modification (mass shift) of M^pro adduct ([3]; native mass spectrometry, covalent adduct): 526 Da; IC50 [14]: 7370 nM; selectivity for inhibiting SARS-CoV-2 M^pro over cathepsin L [14]: 94 fold
C[C@H](NC(=O)[C@@H](c1cccnc1)N(C(=O)C(Cl)Cl)c1ccc(-c2ccccc2)cc1)c1ccc(Br)cc1 [Jun9-90-3R]						0.3		2070	910	3240		> 100000	1540	EC50 [23]: 2000 nM
